Values of other authors, collected in patent publication US6641839B1, “Pharmaceutical formulations for preventing drug tolerance” (Athpharma Limited, priority 1987, dated 2003).

Details: nitrate therapy, widely believed critical level

SMILES	minimum critical plasma concentration for therapeutic effect
O=[N+]([O-])O[C@@H]1CO[C@H]2[C@@H]1OC[C@@H]2O [IS-5-MN, isosorbide-5-mononitrate]	approximately 100 ng/ml
O=[N+]([O-])O[C@H]1CO[C@H]2[C@@H]1OC[C@H]2O [IS-2-MN, isosorbide-2-mononitrate]	approximately 20 ng/ml
